The text below walks through data of patent US8703825B2, “Compounds, use thereof as medicaments, and method of preparation thereof” (Universite de Lorraine, priority 2008, dated 2014).

Values after ≈ are worked out from the molar mass of the structure shown. Read-outs that look alike come from different tables or passages of the source.

The CC50 is the concentration giving 50% cytotoxicity. Usually IC50 stands for the concentration that inhibits the measured activity by half.

Holding throughout (assay type): cell-based
In series [1] the test system is Escherichia coli ATCC 25922. Put plainly: MIC by microdilution in liquid medium (CLSI / CA-SFM). The note with it: E. coli ATCC 25922; HaCaT cell lines, 24 h exposure. A general note: Broth dilution looks for growth in wells or tubes with falling amounts of substance.
Series [2] in a line: in vitro. The note with it: human. An excerpt:
(§1) The eukaryotic cells used in our study are HaCaT cells (human keratinocytes), which were kindly supplied by the Pierre Fabre Institute (Toulouse, France); and MRC-5 cells (human embryonic fibroblasts), which were obtained from the company BioMérieux (Lyons, France). These cells are cultivated in DMEM (“Dulbecco's modified Eagle's medium”, Invitrogen 61965) for the HaCaT cells, and MEM (“modified Eagle's medium”, Invitrogen 41090); 10% of fetal calf serum (FCS, Invitrogen, 10270, Batch 40Q5150K) in a humid chamber at 37° C., under 5% CO2. The HaCaT and MRC-5 cells were seeded at 10^4 cells/well in 96-well plates (Sarstedt 831835). After 48 h of growth, the culture medium is withdrawn and replaced with the various “test” solutions (volume=100 μL). After contact time of 24, 48 and/or 168 H,the viability or cytotoxicity tests are carried out.
(§2) b) Cytotoxicity Tests (Neutral Red Test)
(§3) The cytotoxicity test is based on incorporation of a vital dye, Neutral Red, in the lysosomes of the viable cells, after exposure of the cells to different concentrations of the test molecules. The quantity of dye, after extraction from the lysosomes, is quantified by means of a spectrophotometer and compared with that obtained in the case of “control” cells, not exposed to the test molecules.
(§4) The test was carried out as described previously [Borenfreund E, Puerner J A. Toxicity determined in vitro by morphological alterations and neutral red absorption. Toxicol Lett 1985; 24: 119-24, and Grare M, Mourer M, Fontanay S, Regnouf-de-Vains J B, Finance C, Duval R E. In vitro activity of para-guanidinoethylcalix[4]arene against susceptible and antibiotic-resistant Gram-negative and Gram-positive bacteria. J Antimicrob Chemother. 2007; 60: 575-81].
(§5) After contact times of 24, 48 and/or 168 h with the different concentrations of the test molecules, the medium contained in each well is withdrawn and replaced with 200 μL of medium without phenol red (Invitrogen, 51200) containing 50 μg/mL of Neutral Red for an additional 3 h of incubation. The cells are then rinsed 3 times with PBS solution. After the last washing with PBS, 200 μL of a solution with 1% acetic acid/50% ethanol is added to each well to extract the dye from the lysosomes of the viable cells. The absorbance is measured at 540 nm, with a reference wavelength at 690 nm, by means of an ELISA plate reader (Multiskan E X, Thermo Electron Corporation, France). The results are the mean of the values obtained for 8 wells per concentration and per unit time. Each experiment was carried out 3 times.

The nature of series [3]: in vitro. The note with it: human.
Excerpt: as §1, §2, §3, §4, §5
The source holds these as a separate data set.

Series [4] concerns Staphylococcus aureus ATCC 25923. As to the kind of experiment: MIC by microdilution in liquid medium (CLSI / CA-SFM). The following applies: S. aureus ATCC 25923; HaCaT cell lines, 24 h exposure.
Series [5] concerns Pseudomonas aeruginosa ATCC 27853. The description is as above. The note with it: P. aeruginosa ATCC 27853; HaCaT cell lines, 24 h exposure.
In series [6] the test system is HaCaT cells (human keratinocytes). As to the kind of experiment: Cellular viability test (MTT test). The note with it: read-out: IC50 viability test (with MTT).
Excerpt: as §1
(§6) a) Cellular Viability Tests (MTT Test)
(§7) In order to evaluate the effect of the various compounds tested on the viability of HaCaT and MRC-5 cells, the MTT technique (3-[4,5-dimethylthiazol-2-yl]-2,5-diphenyltetrazolium bromide; MTT, Aldrich, 135038), described by Mosmann [Mosmann T. Rapid colorimetric assay for cellular growth and survival: application to proliferation and cytotoxicity assays. J Immunol Methods. 1983; 65: 55-63] and modified by Grare et al. [Grare M, Mourer M, Fontanay S, Regnouf-de-Vains J B, Finance C, Duval R E. In vitro activity of para-guanidinoethylcalix[4]arene against susceptible and antibiotic-resistant Gram-negative and Gram-positive bacteria. J Antimicrob Chemother. 2007; 60: 575-81], was used.
(§8) It is based on the reduction of yellow tetrazolium salts to purple crystals of formazan, mainly by mitochondrial dehydrogenases. The quantity of formazan formed is proportional to the number of live cells. After the contact times of 24, 48 and/or 168 h with the different concentrations of the test molecules, 10 nI, of MTT (at 5 mg/mL) is added to each well and the plates are placed at 37° C. After incubation for 4 H,the insoluble crystals of formazan that have formed are dissolved by adding 100 μL SDS to each well. The absorbance is measured at 540 nm with a reference wavelength at 690 nm, using an ELISA plate reader (Multiskan E X, Thermo Electron Corporation, France). The results are the mean of the values obtained for 8 wells per concentration and per unit time. Each experiment was carried out 3 times.
(In general: Formazan colour is commonly taken as a measure of viable cells.)

Series [7] relates to MRC-5 cells (human embryonic fibroblasts). Put plainly: Cellular viability test (MTT test). The following applies: read-out: IC50 viability test (with MTT).
Excerpt: as §1, §6, §7, §8

Series [8] relates to Enterococcus faecalis ATCC 29212. As to the kind of experiment: MIC by microdilution in liquid medium (CLSI / CA-SFM). The note with it: E. faecalis ATCC 29212; HaCaT cell lines, 24 h exposure.

For the compound `[H]/N=C(\N/C(=N/[H])NCCCCCCNC(=N)NC(=N)Nc1ccc(Cl)cc1)Nc1ccc(Cl)cc1` [CHX, chlorhexidine], the “Selectivity index (SI=IC50/MIC)” value was 64-128 in series [1], 32-64 in series [4], 2-4 in series [5] and 8-16 in series [8]. The CC50 at 24 h in series [2] and in series [3] was 8 to 16 µg/mL (≈ 15.8 to 31.7 µM) throughout. Moreover, the IC50 in series [6] (24 h) was 8 to 16 µg/mL (≈ 15.8 to 31.7 µM); in series [6] (48 h), 4 to 8 µg/mL (≈ 7.91 to 15.8 µM); in series [6] (168 h) it was 2 to 4 µg/mL (≈ 3.96 to 7.91 µM); in series [7] (MRC5, MRC-5, 24 h) it was 16 to 32 µg/mL (≈ 31.7 to 63.3 µM); in series [7] (MRC5, MRC-5, 48 h) it was 8 to 16 µg/mL (≈ 15.8 to 31.7 µM); in series [7] (MRC5, MRC-5, 168 h), 1 to 2 µg/mL (≈ 1.98 to 3.96 µM).

On to `N=C(N)c1ccc(OCCCCCCOc2ccc(C(=N)N)cc2)cc1` [HX, hexamidine], for which the “Selectivity index (SI=IC50/MIC)” value in series [1] is 4-8; in series [4] it was 8-16; in series [5], 1-2; in series [8] it was 16-32. In addition, the CC50 at 24 h in series [2] and in series [3] was 8 to 16 µg/mL (≈ 22.6 to 45.1 µM) in each case. For the same compound, the CC50 at 48 h in series [2] and in series [3] was 8 to 16 µg/mL (≈ 22.6 to 45.1 µM) in each case. Besides, the IC50 is 32 to 64 µg/mL (≈ 90.3 to 181 µM) in series [6] (24 h); 16 to 32 µg/mL (≈ 45.1 to 90.3 µM) in series [6] (48 h); 4 to 8 µg/mL (≈ 11.3 to 22.6 µM) in series [6] (168 h); 32 to 64 µg/mL (≈ 90.3 to 181 µM) in series [7] (MRC5, 24 h); 16 to 32 µg/mL (≈ 45.1 to 90.3 µM) in series [7] (MRC5, 48 h); 4 to 8 µg/mL (≈ 11.3 to 22.6 µM) in series [7] (MRC5, 168 h).

As to `N=C(N)NCCc1ccc(OCCCCCCOc2ccc(CCNC(=N)N)cc2)cc1` [compound 6, 1,6-bis(4-(2-guanidinoethyl)phenoxy)hexane], the “Selectivity index (SI=IC50/MIC)” value is reported as 1-2 in series [1], 8-16 in series [4], 0.25-0.5 in series [5] and 0.5-1^ in series [8]. For the same compound, the CC50 at 24 h in series [2] and in series [3] was 4 to 8 µg/mL (≈ 9.08 to 18.2 µM) in each case. This compound returned a CC50 at 48 h in series [2] of 2 to 4 µg/mL (≈ 4.54 to 9.08 µM). This compound yielded a CC50 at 168 h in series [2] of 1 to 2 µg/mL (≈ 2.27 to 4.54 µM). Besides, the IC50 in series [6] (24 h) fell in the range of 4 to 8 µg/mL (≈ 9.08 to 18.2 µM); in series [6] (48 h), 4 to 8 µg/mL (≈ 9.08 to 18.2 µM); in series [6] (168 h), 1 to 2 µg/mL (≈ 2.27 to 4.54 µM); in series [7] (MRC5, MRC-5, 24 h), 8 to 16 µg/mL (≈ 18.2 to 36.3 µM); in series [7] (MRC5, MRC-5, 48 h), 4 to 8 µg/mL (≈ 9.08 to 18.2 µM); in series [7] (MRC5, MRC-5, 168 h), 0.5 to 1 µg/mL (≈ 1.13 to 2.27 µM).
